The target in experiment [1] is T1, Glucagon receptor (Homo sapiens, UniProt P47871). As to the kind of experiment: Antagonist activity at human GCGR expressed in CHO cells assessed as inhibition of glucagon-stimulated cAMP production preincubated for 30 mins followed by glucagon induction measured after 45 mins by LANCE assay. It is filed as functional, cell-based.
In experiment [2] the target is Glucagon receptor (Mus musculus, UniProt Q61606). The experiment is classed as cell membranes, Liver, Membrane.
Description: Displacement of [125I]-glucagon from GCGR in mouse liver membranes after 60 mins by scintillation counting analysis
For experiment [3], the target named is T1, Glucagon receptor. The experiment is described as follows: biochemical. The experiment is classed as cell-based, CHO.
Description: Displacement of [125I]-glucagon from recombinant human GCGR expressed in CHO cells after 60 mins by scintillation counting analysis
The target of experiment [4] is Glucagon-like peptide 1 receptor (Homo sapiens, UniProt P43220). As to the kind of experiment: Antagonist activity at human GLP-1R expressed in CHO cells assessed as inhibition of GLP-1-stimulated cAMP production preincubated for 30 mins followed by GLP-1 induction measured after 45 mins by LANCE assay. The experiment is classed as functional, cell-based.
Chain of Glucagon-like peptide 1 receptor (P43220 whole entry): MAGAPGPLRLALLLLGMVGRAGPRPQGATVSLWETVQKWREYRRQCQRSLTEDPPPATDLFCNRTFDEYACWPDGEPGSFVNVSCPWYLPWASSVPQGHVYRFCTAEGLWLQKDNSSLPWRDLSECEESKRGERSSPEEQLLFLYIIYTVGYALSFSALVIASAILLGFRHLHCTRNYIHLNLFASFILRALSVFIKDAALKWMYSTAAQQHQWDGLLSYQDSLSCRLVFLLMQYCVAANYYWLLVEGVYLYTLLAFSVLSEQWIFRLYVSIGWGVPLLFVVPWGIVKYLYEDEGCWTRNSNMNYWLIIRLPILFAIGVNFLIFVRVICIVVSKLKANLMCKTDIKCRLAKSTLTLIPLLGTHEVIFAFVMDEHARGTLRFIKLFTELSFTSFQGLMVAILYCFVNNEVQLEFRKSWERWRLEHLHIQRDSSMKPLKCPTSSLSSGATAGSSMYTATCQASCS

T1 sequence (P47871 whole entry): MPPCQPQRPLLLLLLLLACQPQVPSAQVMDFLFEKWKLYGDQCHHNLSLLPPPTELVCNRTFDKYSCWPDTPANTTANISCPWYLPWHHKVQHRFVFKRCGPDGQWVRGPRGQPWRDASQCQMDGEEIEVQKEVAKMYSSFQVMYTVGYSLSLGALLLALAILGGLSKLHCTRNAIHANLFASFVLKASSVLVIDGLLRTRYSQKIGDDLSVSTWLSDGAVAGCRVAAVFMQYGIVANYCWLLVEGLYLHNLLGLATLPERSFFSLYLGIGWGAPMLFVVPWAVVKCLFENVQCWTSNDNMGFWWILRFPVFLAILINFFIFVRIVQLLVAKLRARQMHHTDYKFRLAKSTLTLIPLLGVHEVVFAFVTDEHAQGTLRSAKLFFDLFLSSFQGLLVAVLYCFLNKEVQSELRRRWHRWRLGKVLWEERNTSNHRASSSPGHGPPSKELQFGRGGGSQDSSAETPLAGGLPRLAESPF
Chain of Glucagon receptor (Mus musculus, UniProt Q61606) (Q61606 whole entry): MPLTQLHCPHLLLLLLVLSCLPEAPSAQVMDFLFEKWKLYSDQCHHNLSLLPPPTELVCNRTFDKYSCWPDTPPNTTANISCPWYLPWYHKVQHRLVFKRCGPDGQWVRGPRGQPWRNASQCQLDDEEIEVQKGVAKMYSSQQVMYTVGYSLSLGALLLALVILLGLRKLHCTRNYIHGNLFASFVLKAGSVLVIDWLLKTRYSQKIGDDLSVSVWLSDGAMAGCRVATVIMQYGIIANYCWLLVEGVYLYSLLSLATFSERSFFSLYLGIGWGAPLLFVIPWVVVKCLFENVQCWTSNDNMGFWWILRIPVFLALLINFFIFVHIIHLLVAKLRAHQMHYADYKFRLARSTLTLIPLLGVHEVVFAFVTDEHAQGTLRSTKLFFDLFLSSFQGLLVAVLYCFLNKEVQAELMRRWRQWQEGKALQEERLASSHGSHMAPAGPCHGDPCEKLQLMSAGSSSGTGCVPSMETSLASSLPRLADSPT

Regarding `C[C@H](c1ccc(C(=O)NCCC(=O)O)cc1)N1C(=O)C(c2cccc(F)c2)=N[C@]12CC[C@@H](C(C)(C)C)CC2`, the IC50 is 560 nM in experiment [1], 4400 nM in experiment [2], 490 nM in experiment [3] and above 10000 nM in experiment [4].
On to `CC(C)(C)CC[C@H](c1ccc(C(=O)NCc2nn[nH]n2)cc1)N1C(=O)C(c2cc(F)cc(Cl)c2)=N[C@]12CC[C@@H](C(C)(C)C)CC2`, for which the IC50 in experiment [1] is 42 nM; in experiment [2], 160 nM; in experiment [3], 10 nM; in experiment [4], above 10000 nM.
Turning to `CC(C)(C)CC[C@H](c1ccc(C(=O)NCc2nn[nH]n2)cc1)N1C(=O)C(c2cccc(C(F)(F)F)c2)=N[C@]12CC[C@@H](C(C)(C)C)CC2`, the IC50 in experiment [1] was 180 nM; in experiment [2], 140 nM; in experiment [3], 13 nM; in experiment [4], above 10000 nM.
For the compound `CC(C)[C@H](c1ccc(C(=O)NCc2nn[nH]n2)cc1)N1C(=O)C(c2cc(Cl)cc(Cl)c2)=N[C@]12CC[C@@H](C(C)(C)C)CC2`, the IC50 in experiment [1] is 2200 nM.
Regarding `CC(C)(C)CC[C@H](c1ccc(C(=O)NCc2nn[nH]n2)cc1)N1C(=O)C(c2cc(F)cc(F)c2)=N[C@]12CC[C@@H](C(C)(C)C)CC2`, the IC50 in experiment [1] was 110 nM; in experiment [2] it was 140 nM; in experiment [3] it was 23 nM; in experiment [4] it was above 10000 nM.
Regarding `CC(CN1C(=O)C(c2cc(Cl)cc(Cl)c2)=N[C@]12CC[C@@H](C(C)(C)C)CC2)c1ccc(C(=O)NCCC(=O)O)cc1` (stereo partly drawn), the IC50 in experiment [1] is 260 nM; in experiment [2] it was 3300 nM; in experiment [3] it was 890 nM; in experiment [4], 7300 nM.
For `CC(C)(C)CC[C@H](c1ccc(C(=O)NCc2nn[nH]n2)cc1)N1C(=O)C(c2cncc(Cl)c2)=N[C@]12CC[C@@H](C(C)(C)C)CC2`, the IC50 in experiment [1] was 480 nM; in experiment [2] it was 84 nM; in experiment [3] it was 38 nM; in experiment [4], above 10000 nM.
In the case of `CC(C)[C@H]1CC[C@]2(CC1)N=C(c1cc(Cl)cc(Cl)c1)C(=O)N2[C@H](CCC(C)(C)C)c1ccc(C(=O)NCc2nn[nH]n2)cc1`, the IC50 in experiment [1] is 52 nM; in experiment [2], 200 nM; in experiment [3] it was 31 nM; in experiment [4], above 10000 nM.
Take `CC(C)CC[C@H](c1ccc(C(=O)NCc2nn[nH]n2)cc1)N1C(=O)C(c2cc(Cl)cc(Cl)c2)=N[C@]12CC[C@@H](C(C)(C)C)CC2`: the IC50 in experiment [1] is 150 nM; in experiment [2], 280 nM; in experiment [3] it was 22 nM; in experiment [4], above 10000 nM.
For the compound `C[C@H](c1ccc(C(=O)NCCC(=O)O)cc1)N1C(=O)C(c2ccc(OC(F)(F)F)cc2)=N[C@]12CC[C@@H](C(C)(C)C)CC2`, the half-maximal inhibitory concentration (IC50) in experiment [1] was 1100 nM; in experiment [2], 8000 nM; in experiment [3] it was 67 nM; in experiment [4], above 10000 nM.
The corresponding values for `C[C@H](c1ccc(C(=O)NCCC(=O)O)cc1)N1C(=O)C(c2ccc(F)cc2)=N[C@]12CC[C@@H](C(C)(C)C)CC2` are 430 nM, 2500 nM, 85 nM and 7800 nM.
Regarding `COc1ccc(C2=N[C@]3(CC[C@@H](C(C)(C)C)CC3)N([C@H](CCC(C)(C)C)c3ccc(C(=O)NCc4nn[nH]n4)cc3)C2=O)cc1`, the results for the IC50 in experiment [1], in experiment [3] and in experiment [4] were 360 nM, 26 nM and above 10000 nM, respectively.
Turning to `CC(C)(C)CC[C@H](c1ccc(C(=O)NCC(=O)O)cc1)N1C(=O)C(c2cc(Cl)cc(Cl)c2)=N[C@]12CC[C@@H](C(C)(C)C)CC2`, the IC50 in experiment [1] was 2700 nM; in experiment [4], above 10000 nM.
Take `CC(C)(C)CC[C@H](c1ccc(C(=O)NCc2nn[nH]n2)cc1)N1C(=O)C(c2ccc(C(F)(F)F)cc2)=N[C@]12CC[C@@H](C(C)(C)C)CC2`: the IC50 in experiment [1] was 160 nM; in experiment [2] it was 190 nM; in experiment [3], 7 nM; in experiment [4] it was above 10000 nM.
Regarding `C[C@H](c1ccc(C(=O)NCCC(=O)O)cc1)N1C(=O)C(c2ccc(F)c(Cl)c2)=N[C@]12CC[C@@H](C(C)(C)C)CC2`, the IC50 is 440 nM in experiment [1], 2300 nM in experiment [2], 44 nM in experiment [3] and 4300 nM in experiment [4].
For `CC(C)(C)CC[C@H](c1ccc(C(=O)NCc2nn[nH]n2)cc1)N1C(=O)C(c2ncccc2C(F)(F)F)=N[C@]12CC[C@@H](C(C)(C)C)CC2`, the IC50 in experiment [1] was 1600 nM; in experiment [4], above 10000 nM.
On to `C[C@H](c1ccc(C(=O)NCCC(=O)O)cc1)N1C(=O)C(c2cccc(C(F)(F)F)c2)=N[C@]12CC[C@@H](C(C)(C)C)CC2`, for which the IC50 in experiment [1] is 280 nM; in experiment [2], 2200 nM; in experiment [3], 720 nM; in experiment [4] it was 6300 nM.
In the same order, the values of `CC(C)(C)CC[C@H](c1ccc(C(=O)NCCC(=O)O)cc1)N1C(=O)C(c2cc(Cl)cc(Cl)c2)=N[C@]12CC[C@@H](C(C)(C)C)CC2` are 48 nM, 520 nM, 16 nM and 2000 nM.
The corresponding values for `C[C@H](c1ccc(C(=O)NCCC(=O)O)cc1)N1C(=O)C(c2cccc(OC(F)(F)F)c2)=N[C@]12CC[C@@H](C(C)(C)C)CC2` are 840 nM, 1500 nM, 330 nM and 2200 nM.
On to `CC(C)(C)CC[C@H](c1ccc(C(=O)NCc2nn[nH]n2)cc1)N1C(=O)C(c2cc(Cl)cc(Cl)c2)=NC1(C)C`, for which, in experiment [4], the IC50 was above 10000 nM.
With `CC(C)(C)[C@H]1CC[C@]2(CC1)N=C(c1cc(Cl)cc(Cl)c1)C(=O)N2[C@@H](c1ccc(C(=O)NCc2nn[nH]n2)cc1)C1CC1`, the IC50 in experiment [1] is 540 nM; in experiment [2] it was 750 nM; in experiment [3], 72 nM; in experiment [4] it was above 10000 nM.
As for `CC(C)(C)CC[C@H](c1ccc(C(=O)Nc2nnn[nH]2)cc1)N1C(=O)C(c2cc(Cl)cc(Cl)c2)=N[C@]12CC[C@@H](C(C)(C)C)CC2`, the IC50 is 850 nM in experiment [1], 600 nM in experiment [3] and 140 nM in experiment [4].
In the case of `C[C@H](c1ccc(C(=O)NCCC(=O)O)cc1)N1C(=O)C(c2ccc(C(F)(F)F)cc2)=N[C@]12CC[C@@H](C(C)(C)C)CC2`, the IC50 was 910 nM in experiment [1], 2800 nM in experiment [2], 170 nM in experiment [3] and above 10000 nM in experiment [4].
On to `COc1cccc(C2=N[C@]3(CC[C@@H](C(C)(C)C)CC3)N([C@H](CCC(C)(C)C)c3ccc(C(=O)NCc4nn[nH]n4)cc3)C2=O)c1`, for which the results for the IC50 in experiment [1], in experiment [3] and in experiment [4] were 230 nM, 15 nM and above 10000 nM, respectively.
`CC(C)(C)[C@H]1CC[C@]2(CC1)N=C(c1cc(Cl)cc(Cl)c1)C(=O)N2CCc1ccc(C(=O)NCCC(=O)O)cc1`: the IC50 in experiment [1] is 170 nM; in experiment [2], 1500 nM; in experiment [3], 170 nM; in experiment [4], above 10000 nM.
`CC(C)(C)CC[C@H](c1ccc(C(=O)NCc2nn[nH]n2)cc1)N1C(=O)C(c2cc(Cl)cc(Cl)c2)=NC12CCCCC2`: the results for the IC50 in experiment [1], in experiment [3] and in experiment [4] were 510 nM, 195 nM and above 10000 nM, respectively.
Take `CC(C)(C)CC[C@H](c1ccc(C(=O)NC[C@H](O)C(=O)O)cc1)N1C(=O)C(c2cc(Cl)cc(Cl)c2)=N[C@]12CC[C@@H](C(C)(C)C)CC2`: the IC50 was 370 nM in experiment [1], 86 nM in experiment [3] and above 10000 nM in experiment [4].
Turning to `CC(C)(C)CC[C@H](c1ccc(C(=O)NCCCC(=O)O)cc1)N1C(=O)C(c2cc(Cl)cc(Cl)c2)=N[C@]12CC[C@@H](C(C)(C)C)CC2`, the figures for the IC50 in experiment [1], in experiment [3] and in experiment [4] were 350 nM, 270 nM and above 10000 nM, respectively.
With `CC(C)(C)CC[C@H](c1ccc(C(=O)NCCS(=O)(=O)O)cc1)N1C(=O)C(c2cc(Cl)cc(Cl)c2)=N[C@]12CC[C@@H](C(C)(C)C)CC2`, the IC50 in experiment [1] is 8500 nM; in experiment [4], above 10000 nM.
Turning to `CC(C)(C)CC[C@H](c1ccc(C(=O)NCc2nn[nH]n2)cc1)N1C(=O)C(c2cc(Cl)cc(Cl)c2)=N[C@]12CC[C@@H](C)CC2`, the IC50 in experiment [1] was 260 nM; in experiment [3], 36 nM; in experiment [4] it was above 10000 nM.
As to `C[C@@H](NC(=O)c1ccc([C@@H](CCC(C)(C)C)N2C(=O)C(c3cc(Cl)cc(Cl)c3)=N[C@]23CC[C@@H](C(C)(C)C)CC3)cc1)c1nnn[nH]1`, the IC50 in experiment [1] is 4500 nM; in experiment [4], above 10000 nM.
Regarding `CC(C)(C)CC[C@H](c1ccc(C(=O)NCCC2=NNNN2)cc1)N1C(=O)C(c2cc(Cl)cc(Cl)c2)=N[C@]12CC[C@@H](C(C)(C)C)CC2`, the results for the IC50 in experiment [1], in experiment [3] and in experiment [4] were 890 nM, 65 nM and above 10000 nM, respectively.
Turning to `C[C@@H](CC(=O)O)NC(=O)c1ccc([C@@H](CCC(C)(C)C)N2C(=O)C(c3cc(Cl)cc(Cl)c3)=N[C@]23CC[C@@H](C(C)(C)C)CC3)cc1`, the IC50 in experiment [1] and in experiment [4] was above 10000 nM throughout.
Take `CC(C)(C)CC[C@H](c1ccc(C(=O)NC[C@@H](O)C(=O)O)cc1)N1C(=O)C(c2cc(Cl)cc(Cl)c2)=N[C@]12CC[C@@H](C(C)(C)C)CC2` (mixture of isomers): the values for the IC50 in experiment [1], in experiment [3] and in experiment [4] were 400 nM, 149 nM and above 10000 nM, respectively.
In the case of `C[C@H](NC(=O)c1ccc([C@@H](CCC(C)(C)C)N2C(=O)C(c3cc(Cl)cc(Cl)c3)=N[C@]23CC[C@@H](C(C)(C)C)CC3)cc1)c1nnn[nH]1`, the IC50 in experiment [1] and in experiment [4] was above 10000 nM throughout.
`CC[C@H]1CC[C@]2(CC1)N=C(c1cc(Cl)cc(Cl)c1)C(=O)N2[C@H](CCC(C)(C)C)c1ccc(C(=O)NCc2nn[nH]n2)cc1`: the IC50 was 66 nM in experiment [1], 44 nM in experiment [3] and above 10000 nM in experiment [4].
As for `C[C@@H](c1ccc(C(=O)NCCC(=O)O)cc1)N1C(=O)C(c2cc(Cl)cc(Cl)c2)=N[C@]12CC[C@@H](C(C)(C)C)CC2`, the values for the IC50 in experiment [1] and in experiment [4] were 5100 nM and above 10000 nM, respectively.

Values taken from ChEMBL document CHEMBL3232855, “The discovery of N-((2H-tetrazol-5-yl)methyl)-4-((R)-1-((5r,8R)-8-(tert-butyl)-3-(3,5-dichlorophenyl)-2-oxo-1,4-diazaspiro[4.5]dec-3-en-1-yl)-4,4-dimethylpentyl)benzamide (SCH 900822): a potent and selective glucagon receptor antagonist” (J Med Chem, 2014).
